TGI and GI50 data for 23 compounds are collected here from PubChem BioAssay (NCI).

Common to all, as to experiment: NCI tumour cell line growth inhibition, 48 h
Test [1] has as its system 786-0 renal.
The subject of test [2] is ACHN renal.
Test [3] concerns CCRF-CEM leukemia.
Test [4] deals with NCI-H23 lung.
Test [5] concerns RPMI-8226 leukemia.
Test [6] has as its system SK-OV-3 ovarian.
Test [7] has as its system SN12C renal.
Test [8] deals with U251 CNS.
In test [9] the test system is UACC-62 melanoma.
The subject of test [10] is SK-MEL-2 melanoma.

Where “and” joins values, the source holds several entries; their conditions need not be identical. Equal values may be shown once.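 A five-concentration, 48-hour dose response in 96-well plates underlies each endpoint, interpolated linearly between surrounding concentrations. GI50 = concentration required for 50% inhibition of growth. Definition used: TGI = concentration required for complete inhibition of growth.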 Where only a bound is given, the exact number is not on record here.

As for `OCCCc1cnco1`, the TGI in test [1], in test [2], in test [3], in test [4], in test [5] and in test [6] was > 100 µM each time. For the same compound, the TGI in test [7], in test [8] and in test [9] was > 100 µM throughout.
`O=[N+]([O-])c1ccc(/C(Cl)=C/c2ccc(/C=C(\Cl)c3ccc([N+](=O)[O-])cc3[N+](=O)[O-])cc2)c([N+](=O)[O-])c1`: the TGI in test [1], in test [2], in test [4], in test [5], in test [10] and in test [6] was > 100 µM each time. The TGI in test [7], in test [8] and in test [9] was > 100 µM each time.
For `C=C1C(=O)c2cc3c(cc2C(c2cc(OC)c(OC)c(OC)c2)[C@@H]1C(=O)O)OCO3` (stereo partly drawn), the TGI in test [1], in [2], in test [3], in test [4], in test [5] and in [6] was > 100 µM in each case. Besides, the TGI in test [7], in test [8] and in test [9] was > 100 µM each time.
`CC(=O)SC(SC(C)=O)SC(C)=O`: the TGI is > 100 µM in test [1]; > 100 µM in [2]; 81 µM in test [3]; > 100 µM in test [4]; > 100 µM in [10]; > 100 µM in test [6]. In addition, the TGI in test [7], in test [8] and in test [9] was > 100 µM in each case.
Regarding `COC(=O)[C@@H](C)C[C@H](Cc1ccccc1)NC(=O)c1csc([C@@H](C[C@H](C(C)C)N(C)C(=O)C2(NC(=O)[C@H]3CCCCN3C)CCC2)OC(C)=O)n1`, the TGI in test [1], in [2], in test [3], in test [4], in test [5] and in test [6] was > 25 µM in each case. In addition, the TGI in [7], in [8] and in [9] was > 25 µM each time. Further, the GI50 was 0.0249 µM and 0.0193 µM in test [2]; 0.00533 µM and 0.0025 µM in [3]; 0.00779 µM and 0.00892 µM in test [4]; 0.00259 µM and 0.0025 µM in [5]; 0.0156 µM and 0.00504 µM in [6]; 0.0087 µM and 0.017 µM in test [7]. Moreover, the GI50 in [8] is 0.00545 µM and 0.00627 µM; in [9], 0.00244 µM and 0.0025 µM.
As for `C=C(COC(C)=O)CC(/C=C(\C)CC/C=C(\C)CO)OC(C)=O` (stereo not drawn), the TGI in test [1], in test [2], in test [3], in [4], in test [10] and in test [6] was > 100 µM each time. Also, the TGI in [7], in [8] and in test [9] was > 100 µM throughout.
With `CC(=O)Oc1c(Br)ccc2cc(C(Br)Br)c(C(=O)c3ccccc3)nc12`, the TGI in test [1] stood at 46.9 µM; in [2], 44.3 µM; in test [4] it was 37.5 µM; in test [10] it was 48.2 µM; in test [7] it was 45.6 µM; in [8], 36.3 µM. The same compound displayed a TGI in [9] of 39.4 µM.
With `CCOC(=O)/C(=C/c1ccccc1Br)P(=O)(OCC)OCC`, the TGI came out at 2.66 µM in [1]; 6 µM in test [2]; 3.16 µM in [3]; 4.09 µM in test [4]; 3.36 µM in [5]; 3.7 µM in [10]. For the same compound, the TGI amounted to 5.76 µM in test [7], 3.18 µM in test [8] and 3.29 µM in [9].
Take `COC(=O)c1nc(C(=O)OC)c2c([nH]c3ccccc32)c1C(=O)OC`: the TGI in [1], in test [3], in test [4], in test [10], in [7] and in test [8] was > 100 µM in each case. Moreover, the TGI in test [9] was > 100 µM.
`N#Cc1c(-c2ccccc2)cc(-c2cccs2)c(C#N)c1N`: the TGI in [1], in [2], in test [3], in test [5], in test [7] and in [8] was > 100 µM in each case.
As for `C/C(=N/NC(=S)N1CC2CCC(CC2)C1)c1cnccn1`, the TGI in [1] is 5.65 µM; in test [2] it was 10.1 µM; in test [4], 13.7 µM; in test [5], 4.95 µM; in test [10], 8.75 µM; in test [6] it was 11.9 µM. The TGI in test [7] turned out to be 14.4 µM; in [8] it was 4.28 µM; in test [9], 6.08 µM.
For `COC1=CC(=O)OC(/C=C(C)/C=C/C2=C(C)CCCC2(C)C)C1` (stereo not drawn), the TGI in test [1], in test [2], in test [3], in test [4], in [10] and in test [6] was > 100 µM in each case. Moreover, the TGI in [7], in [8] and in [9] was > 100 µM in each case.
For the compound `NC(=O)CCc1ccccc1Oc1nccc(-c2c(-c3ccc(F)cc3)ncn2C2CCNCC2)n1`, the GI50 in test [1], in [2], in [5], in test [10], in test [6] and in [7] was > 25 µM throughout. Moreover, the GI50 in test [8] and in test [9] was > 25 µM throughout. The TGI in test [1], in [2], in [5], in [10], in test [6] and in [7] was > 25 µM throughout. Also, the TGI in test [8] and in [9] was > 25 µM in each case.
For the compound `O=c1[nH]c(F)nc2c1ncn2C1OC(CO)C(O)C1O` (stereo not drawn), the GI50 in test [1], in test [2], in [3], in test [4], in [5] and in test [6] was > 100 µM in each case. Also, the GI50 in test [7], in test [8] and in test [9] was > 100 µM in each case. Moreover, the TGI in test [1], in [2], in test [3], in test [4], in test [5] and in [6] was > 100 µM in each case. For the same compound, the TGI in [7], in [8] and in [9] was > 100 µM throughout.
Regarding `Cc1ccc(NC(=O)c2nc(S(C)(=O)=O)oc2-c2ccc(F)cc2)cc1Nc1ccc2ncn(C)c(=O)c2c1`, the GI50 in [1] is 2 µM; in test [2] it was 1.62 µM; in test [4], 2.79 µM; in [10] it was 1.59 µM; in test [6] it was 14.1 µM; in test [8] it was 2.01 µM. In addition, the GI50 in test [9] was 2.03 µM. For the same compound, the TGI is 3.55 µM in test [1]; 2.97 µM in test [2]; 9.19 µM in test [4]; 3.29 µM in test [10]; 27.1 µM in test [6]; 3.84 µM in [8]. In addition, in [9], the TGI was found to be 4.88 µM.
With `O=C(N/C=C/C=C/Sc1ccccc1)OCc1ccccc1`, the TGI in test [1] was 31 µM; in test [2] it was 68.9 µM; in test [3] it was > 100 µM; in [4], 48.9 µM; in [5], > 100 µM; in test [6] it was 64.6 µM. Further, the TGI in test [7] worked out at 31.6 µM; in test [8], 34 µM; in test [9] it was 29.9 µM.
Turning to `NCCCNc1nc2ccc(Cl)cc2c2c(=O)c3cc(F)ccc3sc12`, the GI50 in test [1] was 1.92 µM; in test [2], 1.94 µM; in [3] it was 2.35 µM; in [4] it was 5.61 µM; in test [5], 2.77 µM; in [10] it was 12.4 µM. The GI50 in [7] is 2.27 µM; in test [9], 2.83 µM. For the same compound, the TGI was found to be 5.88 µM in [1]; 4 µM in test [2]; 6.65 µM in [3]; 21.2 µM in test [4]; 9.79 µM in test [5]; 33.3 µM in test [10]. In addition, the TGI stood at 6.08 µM in test [7] and 8.41 µM in test [9].
As to `O=C(O)c1cn(C2CC2)c2cc(N3CCN(C(=O)Nc4nc(-c5ccc(Br)cc5)cs4)CC3)c(F)cc2c1=O`, the GI50 in test [1] is 1.75 µM; in test [2] it was 3.11 µM; in [3], 1.23 µM; in [4], 1.43 µM; in [5] it was 0.437 µM; in [7], 3.07 µM. Further, in [8], the GI50 was 1.96 µM. For the same compound, the TGI in test [1], in [2], in test [3], in [4], in test [5] and in [7] was > 100 µM each time. The TGI in test [8] was > 100 µM.
On to `O=C1C(=C([O-])c2ccccc2)C(=O)c2ccccc21.O=C1C(=C([O-])c2ccccc2)C(=O)c2ccccc21.[Co+2]`, for which the GI50 was > 100 µM in [1]; > 100 µM in [2]; 38.6 µM in test [3]; > 100 µM in test [4]; > 100 µM in [5]; > 100 µM in [6]. Further, the GI50 in [7] is > 100 µM; in test [8], > 100 µM; in [9], 57.1 µM. For the same compound, the TGI in test [1], in [2], in test [3], in test [4], in test [5] and in test [6] was > 100 µM throughout. Besides, the TGI in [7], in test [8] and in test [9] was > 100 µM in each case.
As for `Cn1c(=O)c2[nH]c(CCCc3ccc([N+](=O)[O-])cc3)nc2n(C)c1=O`, the TGI in test [1], in test [2], in [4], in test [5], in [10] and in [6] was > 100 µM each time. The TGI in test [7], in [8] and in test [9] was > 100 µM in each case.
Regarding `CS(=N)(=O)CCC(N)P(=O)(O)O` (stereo not drawn), the TGI in [1], in [2], in test [4], in test [5], in test [10] and in [6] was > 100 µM in each case. Further, the TGI in [7], in test [8] and in [9] was > 100 µM in each case.
Take `O=C(NS(=O)(=O)c1ccc(NC[C@H]2COCCO2)c([N+](=O)[O-])c1)c1ccc(N2CCN(CC3=C(c4ccc(Cl)cc4)CC4(CCC4)CC3)CC2)cc1Oc1cnc2[nH]ccc2c1`: the GI50 in [1] is 2.47 µM; in test [2] it was 2.23 µM; in test [3], 2.69 µM; in [4], 2.77 µM; in [10], 1.77 µM; in test [6], 1.95 µM. Moreover, the values for the GI50 in [7], in test [8] and in test [9] were 1.91 µM, 2.19 µM and 1.51 µM, respectively. For the same compound, the TGI in test [1] was 5.69 µM; in [2] it was 5.8 µM; in test [3] it was > 100 µM; in [4], 8.6 µM; in test [10], 3.4 µM; in test [6], 4.57 µM. Also, the TGI in [7] stood at 3.72 µM; in test [8], 5.38 µM; in [9] it was 3 µM.
Take `C=CCC12CCC(=O)[C@@]1(C)CC=C(O)C2=O` (stereo partly drawn): the TGI in test [1], in [2], in [3], in [5], in [6] and in test [7] was > 100 µM each time. The TGI in [8] and in test [9] was > 100 µM throughout.
